Laboratory results reported in patent US20250230193A1, “CYCLIC COMPOUND HAVING SELECTIVE KRAS INHIBITORY EFFECT ON HRAS AND NRAS” (CHUGAI SEIYAKU KABUSHIKI KAISHA, priority 2022, published 2025).
Where a SMILES comes first, the peptide text is derived from it. Bridges are numbered along the chain shown (N, C = ends). [ ]: non-standard residue; d: D form. The star is where a group is joined. hPhe(3-Cl-4-CF3) = N[C@@H](CCc1ccc(C(F)(F)F)c(Cl)c1)C(=O)O; NPrPhe(4-CF3) = CCCN[C@@H](Cc1ccc(C(F)(F)F)cc1)C(=O)O; NMeGly(cPent) = CN[C@H](C(=O)O)C1CCCC1; NMeD = CN[C@@H](CC(=O)O)C(=O)O; NMeL = CN[C@@H](CC(C)C)C(=O)O; NMeA = CN[C@@H](C)C(=O)O; Pyrrolidide = C1CCN(*)C1; Ac5c = NC1(C(=O)O)CCCC1; Aze = O=C(O)[C@@H]1CCN1; Sar = CNCC(=O)O

Tests used:
[1] = molecular target: GDP-bound NRAS wild-type protein (Homo sapiens, UniProt P01111); assay: Binding to NRAS by surface plasmon resonance (SPR), Single Cycle Kinetics
[2] = molecular target: GDP-bound HRAS wild-type protein (Homo sapiens, UniProt P01112); assay: Binding to HRAS by surface plasmon resonance (SPR), Single Cycle Kinetics
[3] = KD ratio, GDP-bound NRAS wild-type vs GDP-bound KRAS wild-type, SPR
[4] = KD ratio, GDP-bound HRAS wild-type vs GDP-bound KRAS wild-type, SPR
[5] = KD ratio NRAS/KRAS, class symbols
[6] = KD ratio HRAS/KRAS, class symbols
[7] = SPR, GDP-bound NRAS wild-type vs GDP-bound KRAS wild-type
[8] = SPR, GDP-bound HRAS wild-type vs GDP-bound KRAS wild-type

GDP-bound HRAS wild-type protein, sequence (P01112 whole entry): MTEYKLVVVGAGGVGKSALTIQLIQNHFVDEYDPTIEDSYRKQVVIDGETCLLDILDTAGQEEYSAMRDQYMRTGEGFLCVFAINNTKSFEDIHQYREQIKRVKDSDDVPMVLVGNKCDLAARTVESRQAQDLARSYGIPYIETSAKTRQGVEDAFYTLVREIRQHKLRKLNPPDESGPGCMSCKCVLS
GDP-bound NRAS wild-type protein, sequence (P01111 whole entry): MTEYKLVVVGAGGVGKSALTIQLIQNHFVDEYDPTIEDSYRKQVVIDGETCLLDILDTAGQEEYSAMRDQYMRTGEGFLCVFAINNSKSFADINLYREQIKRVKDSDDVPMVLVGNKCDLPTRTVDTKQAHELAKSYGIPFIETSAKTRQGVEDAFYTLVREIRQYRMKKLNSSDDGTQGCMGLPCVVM

With CCCN(C)C(=O)[C@@H]1CC(=O)N(C)[C@@H](CC(F)F)C(=O)N[C@@H]([C@@H](C)CC)C(=O)N(C)CC(=O)N(C)[C@H]2C/C=C\CCN(C2=O)[C@@H](Cc2ccc(C(F)(F)F)cc2)C(=O)N(C)CC(=O)N[C@@H](CCc2ccc(C(F)(F)F)c(OC)c2)C(=O)N2C[C@@H](C)C[C@H]2C(=O)NC2(CCC2)C(=O)N(C)[C@@H](C2CCCC2)C(=O)N1C [PP2024] the “NRAS/KRAS (ratio of KD value for NRAS to KD value for KRAS)” value [1, 3] was “A (a compound having 10 or more and less than 20 is denoted as A)” and the “HRAS/KRAS (ratio of KD value for HRAS to KD value for KRAS)” value [2, 4] was “B (a compound having 3 or more and less than 10 is denoted as B)”.

CCOC[C@H]1C(=O)N[C@@H]([C@@H](C)CC)C(=O)N(C2CC2)CC(=O)N(C)[C@H]2C/C=C\CCN(C2=O)[C@@H](Cc2ccc(C)cc2)C(=O)N(C)CC(=O)N[C@@H](CCc2cc(F)c(C(F)(F)F)c(F)c2)C(=O)N2C[C@H](OCC)C[C@H]2C(=O)NC2(CC(C)(C)C2)C(=O)N(C)[C@@H](CC(C)(C)C)C(=O)N(C)[C@H](C(=O)N(C)C)CC(=O)N1C [PP2720] was tested, and the “NRAS/KRAS (ratio of KD value with respect to GDP-bound NRAS wild-type protein to KD value with respect to KRAS)” value [1, 5] was “A (a compound having 10 or more and less than 20 is denoted as A)” and the “HRAS/KRAS (ratio of KD value with respect to GDP-bound HRAS wild-type protein to KD value with respect to KRAS)” value [2, 6] was “A (a compound having 10 or more and less than 20 is denoted as A)”.

CCC[C@H]1C(=O)N[C@@H](CC(C)C)C(=O)N2C[C@@H](OC)C[C@H]2C(=O)N(C)[C@H]2C/C=C\CCN(C2=O)[C@@H](Cc2ccc(C)cc2)C(=O)N(C)CC(=O)N[C@@H](CCc2cc(F)c(C(F)(F)F)c(F)c2)C(=O)N2C[C@H](OCC)C[C@H]2C(=O)NC2(CCC2)C(=O)N(C)[C@@H](C2CCCC2)C(=O)N(C)[C@H](C(=O)N(C)C)CC(=O)N1C [PP2547] was tested, and the “NRAS/KRAS (ratio of KD value with respect to GDP-bound NRAS wild-type protein to KD value with respect to KRAS)” value [1, 5] was “A (a compound having 10 or more and less than 20 is denoted as A)” and the “HRAS/KRAS (ratio of KD value with respect to GDP-bound HRAS wild-type protein to KD value with respect to KRAS)” value [2, 6] was “B (a compound having 3 or more and less than 10 is denoted as B)”.

For CCCOC[C@H]1C(=O)N[C@@H]([C@@H](C)CC)C(=O)N2CCC[C@H]2C(=O)N(C)[C@H]2C/C=C\CCN(C2=O)[C@@H](Cc2ccc(C)cc2)C(=O)N(C)CC(=O)N[C@@H](CCc2ccc(C(F)(F)F)c(OC)c2)C(=O)N2C[C@@H](C)C[C@H]2C(=O)N(C)C2(CCC2)C(=O)N(C)[C@@H](C2CCCC2)C(=O)N(C)[C@H](C(=O)N(C)C)CC(=O)N1C [PP2369], the “NRAS/KRAS (ratio of KD value with respect to NRAS to KD value with respect to KRAS)” value [1, 7] was “A (a compound having 10 or more and less than 20 is denoted as A)” and the “HRAS/KRAS (ratio of KD value with respect to HRAS to KD value with respect to KRAS)” value [2, 8] was “B (a compound having 3 or more and less than 10 is denoted as B)”.

For CCO[C@@H]1C[C@H]2C(=O)NC3(CC(C)(C)C3)C(=O)N(C)[C@@H](C3CCCC3)C(=O)N(C)[C@H](C(=O)N(C)CC)CC(=O)N(C)[C@H]3CCCCCCc4ccc(cc4)C[C@@H](C(=O)N(C)CC(=O)N[C@@H](CCc4ccc(C(F)(F)F)c(OC)c4)C(=O)N2C1)N1CC/C=C\C[C@@H](C1=O)N(C)C(=O)CN(C)C(=O)[C@H]([C@@H](C)CC)NC3=O [PP2260, (1S,7S,11R,13S,19S,22S,26S,29S,35S,37Z)-19-cyclopentyl-11-ethoxy-N-ethyl-7-[2-[3-methoxy-4-(trifluoromethyl)phenyl]ethyl]-N,3,3′,3′,18,21,25,31,34-nonamethyl-29-[(1S)-1-methylpropyl]-2,5,8,14,17,20,24,27,30,33,55-undecaoxo-spiro[3,6,9,15,18,21,25,28,31,34,41-undecazapentacyclo[24.15.11.2^43,46.1^35,41.0^9,13]pentapentaconta-37,43(54),44,46(53)-tetraene-16,1′-cyclobutane]-22-carboxamide], the “NRAS/KRAS (ratio of KD value with respect to NRAS to KD value with respect to KRAS)” value [1, 7] was “A (a compound having 10 or more and less than 20 is denoted as A)” and the “HRAS/KRAS (ratio of KD value with respect to HRAS to KD value with respect to KRAS)” value [2, 8] was “A (a compound having 10 or more and less than 20 is denoted as A)”.

In the case of CCCN1C(=O)[C@@H]2CCN2C(=O)[C@H](C)N(C)C(=O)[C@H]([C@@H](C)CC)NC(=O)[C@H](CC(C)C)N(C)C(=O)C[C@@H](C(=O)N2CCCC2)N(C)C(=O)[C@H](C2CCCC2)N(C)C(=O)C2(CCCC2)NC(=O)[C@@H]2CCCN2C(=O)[C@H](CCc2ccc(C(F)(F)F)c(Cl)c2)NC(=O)CN(C)C(=O)[C@@H]1Cc1ccc(C(F)(F)F)cc1 [PP0179] ([NMeL]I[NMeA][Aze][NPrPhe(4-CF3)][Sar][hPhe(3-Cl-4-CF3)]P[Ac5c][NMeGly(cPent)][NMeD]-Pyrrolidide; lactam N-11), the “NRAS/KRAS (ratio of KD for GDP-bound NRAS wild-type to KD for KRAS)” value ([1]; KD ratio NRAS/KRAS, SPR) is reported as “C (A compound having a KD ratio of 0.1 or more and less than 3 is denoted as C)” and the “HRAS/KRAS (ratio of KD for GDP-bound HRAS wild-type to KD for KRAS)” value ([2]; KD ratio HRAS/KRAS, SPR) is reported as “B (a compound having 3 or more and less than 10 is denoted as B)”.

For CC[C@H](C)[C@@H]1NC(=O)[C@H](CC(C)C)N(C)C(=O)C[C@@H](C(=O)N(C)C)N(C)C(=O)[C@H](C2CCCC2)N(C)C(=O)C2(CCC2)NC(=O)[C@@H]2CC(F)(F)CN2C(=O)[C@H](CCc2ccc(C(F)(F)F)c(Cl)c2)NC(=O)CN(C)C(=O)[C@H](Cc2ccc(F)cc2)N2CCCCC[C@@H](C2=O)N(C)C(=O)CN(C)C1=O [PP0973], the “NRAS/KRAS (ratio of KD value with respect to NRAS to KD value with respect to KRAS)” value [1, 3] was “B (a compound having 3 or more and less than 10 is denoted as B)” and the “HRAS/KRAS (ratio of KD value with respect to HRAS to KD value with respect to KRAS)” value [2, 4] was “B (a compound having 3 or more and less than 10 is denoted as B)”.

For CCC[C@H]1C(=O)N[C@@H]([C@@H](C)CC)C(=O)N(C)CC(=O)N(C)[C@H]2C/C=C\CCN(C2=O)[C@@H](Cc2ccc(C)cc2)C(=O)N(C)CC(=O)N[C@@H](CCc2cc(F)c(C(F)(F)F)c(F)c2)C(=O)N2C[C@H](OCC)C[C@H]2C(=O)N(C)C2(CCC2)C(=O)N(C)[C@@H](C2CCCC2)C(=O)N(C)[C@H](C(=O)N2CCCCC2)CC(=O)N1C [PP3119, (2S,8S,12R,14S,20S,23S,27S,30S,36S,38Z)-20-cyclopentyl-8-[2-[3,5-difluoro-4-(trifluoromethyl)phenyl]ethyl]-12-ethoxy-4,16,19,22,26,32,35-heptamethyl-30-[(1S)-1-methylpropyl]-23-(piperidine-1-carbonyl)-27-propyl-2-(p-tolylmethyl)spiro[1,4,7,10,16,19,22,26,29,32,35-undecazatricyclo[34.5.1.0^10,14]dotetracont-38-ene-17,1′-cyclobutane]-3,6,9,15,18,21,25,28,31,34,42-undecone], the “NRAS/KRAS (ratio of KD value with respect to GDP-bound NRAS wild-type protein to KD value with respect to KRAS)” value ([1]; KD ratio NRAS/KRAS, SPR, GDP-bound wild-type proteins) was “A (a compound having 10 or more and less than 20 is denoted as A)” and the “HRAS/KRAS (ratio of KD value with respect to GDP-bound HRAS wild-type protein to KD value with respect to KRAS)” value ([2]; KD ratio HRAS/KRAS, SPR, GDP-bound wild-type proteins) was “A (a compound having 10 or more and less than 20 is denoted as A)”.

With CCC[C@H]1C(=O)N[C@@H](CC(C)C)C(=O)N(C2CC2)CC(=O)N(C)[C@H]2C/C=C\CCN(C2=O)[C@@H](Cc2ccc(C)cc2)C(=O)N(C)CC(=O)N[C@@H](CCc2cc(F)c(C(F)(F)F)c(F)c2)C(=O)N2C[C@H](OCC)C[C@H]2C(=O)NC2(CCC2)C(=O)N(C)[C@@H](C2CCCC2)C(=O)N(C)[C@H](C(=O)N(C)C)CC(=O)N1C [PP2532] the “NRAS/KRAS (ratio of KD value with respect to GDP-bound NRAS wild-type protein to KD value with respect to KRAS)” value [1, 5] was “A (a compound having 10 or more and less than 20 is denoted as A)” and the “HRAS/KRAS (ratio of KD value with respect to GDP-bound HRAS wild-type protein to KD value with respect to KRAS)” value [2, 6] was “B (a compound having 3 or more and less than 10 is denoted as B)”.
